Reference: patent publication US20020114804A1, “A METHOD OF TREATING INFECTION OF SUTURES AND PROSTHETIC DEVICES” (priority 1996, published 2002)

Experiments:
Format in all cases: cell-based, human
monocytes [1] = test: Monocyte migration through Matrigel or Matrigel/tenascin coated filters; conditions: for Inhibition of chemoattractant-stimulated monocyte migration: Matrigel-coated filters, depending on chemoattractant, human tenascin 5 μg
Description: Mononuclear cells were isolated by centrifugation of heparinized human blood on Ficoll-Hypaque gradients as described (65, 66). The mononuclear cell fraction was resuspended in RMPI 1640 medium supplemented with 10% pooled human serum or autologous serum and used immediately for monocyte migration studies. For some experiments, monocytes were obtained by centrifugation of whole blood or of white blood cells concentrated from a unit of blood (leukopak), on Nycodenz gradients as described (39). More than 90% of the nucleated cells obtained by this Nycodenz method were monocytes, as assessed by their ability to phagocytose IgG-coated red blood cells.
(§1) Cultured monocytes were prepared by allowing 10^7 total mononuclear cells, suspended in 10 ml of RMPI 1640 medium supplemented with 10% pooled human serum (1640+HS), or 10% autologous serum (1640+AS), to adhere to Falcon T-150 tissue culture Petri dishes for 2 h at 37° C. Non-adherent cells were removed by washing, leaving an adherent cell population consisting of greater than 98% monocytes as measured by their capacity to phagocytose IgG coated sheep red blood cells. For migration studies, monocytes were maintained in culture for 24 h in RPMI 1640+HS or AS, and detached from the dishes by gentle pipetting of 10 ml of ice cold phosphate buffered saline (without Ca^2+ or Mg^2+) containing 1.0 mM EDTA. The cells recovered were resuspended in RPMI-1640+HS as described (65).
(§2) Cell culture inserts containing polyethylene terephthalate filters, 8-μm pore size (Becton-Dickinson), were overlaid with 0.1 ml of Matrigel (20-25 μg protein/filter) (Collaborative Research, Bedford, Mass.), and incubated at room temperature until they dried. These Matrigel-coated filters were washed with phosphate buffered saline containing 1.0 mM Mg^2+ and 1.0 mM Ca^2+ (PBS). 0.1 ml of a PBS solution (pH 7.2) containing the indicated amount of purified chick brain tenascin was added to some of the inserts. The filters were incubated at room temperature until they dried. These protein-coated filters were washed again with PBS and used within 12 h for cell migration studies. To prepare collagen I-coated inserts, filters were coated with rat tail collagen I (ICN Biochemicals, Costa, Mesa, Calif.) (400 μg/ml in PBS), by adding 0.1 ml of this solution to an insert and incubating the inserts at room temperature for 24 h. Some of these collagen I-coated filters were then incubated with tenascin as described above.
Monocytes: Cell culture inserts were placed in 16 mm wells containing 0.5 mls of RPMI-1640+HS or AS in the presence or absence of a chemoattractant. 0.5 ml of RPMI-1640+HS or AS serum containing between 2-10×10^5 mononuclear phagocytes was added to the upper chamber of the inserts and the inserts were placed in a humidified CO2 incubator at 37° C. After 24 h the medium in the lower chamber was recovered and its cell content assayed using either a Coulter counter or a hemocytometer. […] Cell counts reported are the average number of cells recovered from the medium in the lower compartment of chemotaxis chambers. Over 90% of the cells in the lower chamber were identified as monocytes based on their morphology, their capacity to phagocytose IgG coated sheep red cells, and their staining with fluorescein-conjugated anti α,β monoclonal antibody (Oncogene Sciences, Uniondale, N.Y.). Unless otherwise indicated, all values are the average of duplicate samples run in parallel in a representative experiment. Each experiment was repeated at least three times with similar results.

PMNs [2] = test: PMN migration through Matrigel or Matrigel/tenascin coated filters; conditions: for Inhibition of chemoattractant-stimulated PMN migration: Matrigel-coated filters, depending on chemoattractant, human tenascin 5 μg
Description: Polymorphonuclear leukocytes (PMN), were prepared as described (7) from heparinized human blood by sedimentation on Ficoll-Hypaque gradients. Contaminating red blood cells were removed by hypotonic lysis. The purity of PMN isolated by this method was >95% as determined by Wright-Giemsa staining.
as §2
PMN: 250 μl of PBS [supplemented with 5.5 mM glucose and 0.1% human serum albumin (HSA) (PBSG-HSA)] containing 1×10^6 PMNs was placed in the upper compartment of each insert. 250 μl of PBSG-HSA with or without chemoattractant, as indicated, was added to the bottom compartment. The inserts were incubated for about 4 h at 37° C. in a humidified atmosphere containing 95% air/5% CO2. […] The medium in the lower compartment was collected and its content of PMN determined using a Coulter Counter, as described in Example 1.

PMNs [3] = test: PMN migration through filters coated with fibrinogen or fibronectin
Description: (§3) Becton-Dickinson cell culture inserts (pore sizes 3 or 8 μm: Franklin Lakes, N.J.) were overlaid with the following proteins:
Fibrinogen or fibronectin: 0.1 ml of PBS containing 100 μg/ml fibrinogen or fibronectin (New York Blood Center, New York, N.Y.), was placed into each insert (pore size 3 μm). Inserts were incubated at 37° C. for 60 min and washed with 250 μl of PBS. Filters coated with fibrinogen or fibronectin were diffusely fluorescent as visualized by epifluorescent microscopy when incubated with the corresponding antibody [fluorescein-labeled anti-fibrinogen, or anti-fibronectin monoclonal antibodies (Cappel, Malvern, Pa.)], while uncoated filters, or filters incubated with fluorescein-labeled antibody of the opposite specificity, were not.
PMNs were prepared from fresh heparinized blood from healthy adult volunteers by sedimentation on Ficoll-Hypaque gradients. Contaminating red blood cells were removed by hypotonic lysis, as described (7). The purity of PMN isolated by this method is >95% as determined by Wright-Giemsa staining (7). […] The medium in each lower compartment was collected and its content of PMNs was determined using either a Coulter Counter or a hemocytometer. […] Counts are expressed as the average number of PMNs that migrated into the lower compartment. […]

PMNs [4] = test: PMN migration through gels of Matrigel or collagen IV; conditions: added to the bottom chamber
Description: as §3
Collagen type IV and Matrigel matrices: 0.1 ml PBS containing 100 μg human placental collagen IV (Fluka Chemical Corp., Ronkonkoma, N.Y.), or 80 μg of reconstituted basement membrane proteins (Matrigel, Collaborative Research, Bedford, Mass.), was placed into each insert and allowed to gel at room temperature for 24 hrs.
PMNs were prepared from fresh heparinized blood from healthy adult volunteers by sedimentation on Ficoll-Hypaque gradients. Contaminating red blood cells were removed by hypotonic lysis, as described (7). The purity of PMN isolated by this method is >95% as determined by Wright-Giemsa staining (7). 10^6 PMNs in 250 μl of PBS supplemented with 5.5 mM glucose and 0.1% human serum albumin (PBSG-HSA), were placed in the upper compartment of each insert and incubated for 0-6 hrs at 37° C. in a humidified atmosphere containing 95% air/5% CO2. At the times and concentrations specified, chemoattractants/cytokines were added to the top or bottom compartment in 250 μl of PBSG-HSA. […] The medium in each lower compartment was collected and its content of PMNs was determined using either a Coulter Counter or a hemocytometer. […] Counts are expressed as the average number of PMNs that migrated into the lower compartment. […]

PMNs [5] = test: Exclusion of rhodamine-labeled polyethylene glycol (Rh-PEG) from zones of adhesion of PMNs; conditions: fMLP in combination with IL-8 or LTB4, fibrin
Description: Rh-PEG binds avidly to protein-coated surfaces, and can be detected easily by its fluorescence. Individual wells on glass microslides (Carlson Scientific, Peotone, Ill.) were coated with either fibrin, Matrigel or collagen IV in a manner similar to that for coating cell culture inserts except that 20 μl of the various solutions were used per well. 20 μl of PMNs (10^6 cells/ml in PBSG-HSA) were added to each well and PMNs were allowed to adhere for 15 mins at 37°. The cells were washed in PBS, fixed with 3.7% paraformaldehyde in PBS for 10 min, washed again with PBS, and further incubated with 10 kDa Rh-PEG at room temperature for 60 min. The preparation then was washed with PBS and immediately observed by phase and fluorescent microscopy at 400× magnification. Average values from three different experiments are reported as the percentage of PMNs that excluded Rh-PEG from zones of adherence between the cells and the underlying matrix.

PMNs [6] = test: PMN migration through fibrin gels in Boyden-type chemotaxis chambers
Description: as §3
Fibrin gels: 1 Unit of thrombin (a gift from Dr. John Fenton, Albany Medical College, Albany, N.Y.), in 5 μl of PBS was added first to each insert. 0.1 ml phosphate buffered saline supplemented with Ca^2+ and Mg^2+ (PBS) containing 100 μg commercial grade fibrinogen (Calbiochem. Inc., San Diego, Calif.) or purified fibrinogen [a gift from Dr. Jeffery Weitz, (MacMaster University, Hamilton, On.)] was then placed into each 8.2 mm diameter insert on top of the thrombin. The mixture was incubated at 37° C. for 5 min to allow fibrin gel formation (determined by visual inspection). 1 Unit PPACK (Calbiochem Inc., San Diego, Calif.; 10^−5 M final concentration), in 100 μl medium was added to each insert to inhibit thrombin, and gels were washed with 250 μl PBS to remove inactivated thrombin. The fibrin gels formed were about 1 mm thick as measured under a dissecting microscope.
PMNs were prepared from fresh heparinized blood from healthy adult volunteers by sedimentation on Ficoll-Hypaque gradients. Contaminating red blood cells were removed by hypotonic lysis, as described (7). The purity of PMN isolated by this method is >95% as determined by Wright-Giemsa staining (7). 10^6 PMNs in 250 μl of PBS supplemented with 5.5 mM glucose and 0.1% human serum albumin (PBSG-HSA), were placed in the upper compartment of each insert and incubated for 0-6 hrs at 37° C. in a humidified atmosphere containing 95% air/5% CO2. At the times and concentrations specified, chemoattractants/cytokines were added to the top or bottom compartment in 250 μl of PBSG-HSA. At the end of the incubation, the chambers were shaken to dislodge PMNs from the lower surface of the inserts. The medium in each lower compartment was collected and its content of PMNs was determined using either a Coulter Counter or a hemocytometer. Both methods gave similar results. Counts are expressed as the average number of PMNs that migrated into the lower compartment. Unless otherwise indicated, all values reported are the average of six data points from at least 3 independent experiments.

PMNs [7] = test: PMN migration through fibrin gels with anti-integrin antibodies or synthetic peptides; conditions: PMNs incubated with antibody (2 μg/ml) or peptide (1 mg/ml); fMLP 10^−7M, 6 hrs
Description: Fibrin gels were formed on filters of cell culture inserts as described in Experimental Peocedures and fMLP (10^−7M) or LTB4 (10^−7M) was added to the medium in the lower chamber. FIG. 10A—10^6 PMNs were pre-incubated in medium containing antibodies against rat or human β1 integrins, or antibodies against the α5 subunit of human α5β1 integrin, or against the human β2 integrin complement receptor 3 (CR3), or against the human β2 integrin p150/95, or against human β3 integrins for 15 min at 4° C. PMNs were placed in the upper chamber of cell culture inserts in the same medium and the inserts were incubated for 6 hrs at 37° C., at which time the number of cells in the lower chamber was determined using a Coulter Counter. […] The mixture was added to the upper chamber of cell culture inserts and the inserts were incubated for 6 hrs at 37° C., at which time the number of cells in the lower chamber was counted as in FIG. 10A.
Fibrin gels: 1 Unit of thrombin (a gift from Dr. John Fenton, Albany Medical College, Albany, N.Y.), in 5 μl of PBS was added first to each insert. […] The mixture was incubated at 37° C. for 5 min to allow fibrin gel formation (determined by visual inspection). […] The fibrin gels formed were about 1 mm thick as measured under a dissecting microscope. […]

monocytes [8] = test: Monocyte migration through collagen I coated inserts; conditions: tenascin added to collagen I
Description: as §1
Cell culture inserts containing polyethylene terephthalate filters, 8-μm pore size (Becton-Dickinson), were overlaid with 0.1 ml of Matrigel (20-25 μg protein/filter) (Collaborative Research, Bedford, Mass.), and incubated at room temperature until they dried. These Matrigel-coated filters were washed with phosphate buffered saline containing 1.0 mM Mg^2+ and 1.0 mM Ca^2+ (PBS). 0.1 ml of a PBS solution (pH 7.2) containing the indicated amount of purified chick brain tenascin was added to some of the inserts. The filters were incubated at room temperature until they dried. […]

PMN or monocytes = test: Adhesion of PMN or monocytes to tenascin-impregnated Matrigel
[9] = added in combination in bottom compartment, 6 hr

`CSCC[C@H](NC=O)C(=O)N[C@@H](CC(C)C)C(=O)N[C@@H](Cc1ccccc1)C(=O)O` [fMLP, formyl-methionyl-leucyl-phenylalanine] was tested, and the “Cultured monocytes that migrated through Matrigel-coated inserts” value (monocytes [1]; Matrigel alone) was about 15%, the “Freshly isolated human monocytes that migrated through Matrigel-coated inserts” value (monocytes [1]; Matrigel alone) was “About 20%” and the “PMNs that migrated through Matrigel-coated inserts” value (PMNs [2]; Matrigel alone) was about 10%. The “PMN migration through filters with adsorbed fibrinogen or fibronectin” value (PMNs [3]) was “promoted PMN migration”, the “PMN migration through gels of Matrigel or collagen IV” value (PMNs [4]) was “stimulated PMN migration” and the “PMNs forming zones of adhesion that excluded 10 kDa Rh-PEG” value (PMNs [5]) was “about 50%”. For the same compound, the “Effect of serum on PMN migration through fibrin gels in response to the chemoattractant” value (PMNs [6]; 20% human serum in upper and lower compartments) was “nor did the presence of serum promote”, the “Effect on PMN migration through fibrin gels in response to IL-8” value (PMNs [6]; [9]) was “reduced” and the “Effect on PMN migration through fibrin gels in response to LTB4” value (PMNs [6]; [9]) was “reduced”. The “PMN migration through fibrin gels (in words)” value (PMNs [6]; chemoattractant in lower compartment, zymosan-activated human plasma 2-10%) was “not”.

GRGDSP was tested, and the “PMN migration through fibrin gels in response to fMLP” value (PMNs [7]) was “migrated through fibrin gels”.

In the case of “chick brain tenascin: tenascin purified from 14-day embryonic chick brains”, the “Inhibition of chemoattractant-stimulated monocyte migration” value (monocytes [1]) is reported as 65-80%, the “Amount causing half maximal inhibition of TNF-stimulated monocyte migration” value (monocytes [1]; amount added to Matrigel-coated insert, cultured monocytes, 24 h) is reported as “about 0.75 μg” and the “Effect on monocyte migration through Matrigel in response to TNF, fMLP or LTB4” value (monocytes [1]; tenascin added to Matrigel) is reported as “significantly reduced”. The “Effect on monocytes that migrated in the absence of chemoattractant” value (monocytes [1]; tenascin added to Matrigel) was “no significant effect”, the “Inhibition of chemoattractant-stimulated PMN migration” value (PMNs [2]) was 65-80% and the “Effect on PMN migration through Matrigel in response to TNF, fMLP or LTB4” value (PMNs [2]; tenascin added to Matrigel) was “significantly reduced”. The “Effect on PMN that migrated across Matrigel in the absence of chemoattractant” value (PMNs [2]; tenascin added to Matrigel) was “further reduced”, the “Reduction of TNF- or LTB4-stimulated monocyte migration through collagen I coated inserts” value (monocytes [8]) was “at least 60%” and the “Number of chemoattractant-stimulated PMN or monocytes adhered to tenascin-impregnated Matrigel over Matrigel alone” value (PMN or monocytes) was “no increase”.

In the case of “human tenascin: tenascin obtained from cultured human glioma cells, from GIBCO-BRL”, the “Inhibition of chemoattractant-stimulated monocyte migration” value (monocytes [1]) is reported as “at least 50%” and the “Inhibition of chemoattractant-stimulated PMN migration” value (PMNs [2]) is reported as “at least 50%”.
